Test results reported in patent US6689748B1, “Method of treating mast cell activation-induced diseases with a proteoglycan” (priority 1998, dated 2004).

Experiments:
Format in all cases: cell-based
[1] = tested on: mast cells purified from peritoneal cavities of male Sprague/Dawley rats; experiment: Histamine secretion from purified rat peritoneal mast cells after saccharide preincubation and wash, stimulated with C48/80 or SP; details: preincubated with 10^−5 M saccharide 60 min 37° C., washed twice; for Mast Cell Secretion (% inhibition), C48/80: stimulated with 10^−5 M C48/80, n = 4; for Mast Cell Secretion (% inhibition), SP: stimulated with 10^−5 M Substance P, n = 3
Method: We studied the effect of chondroitin sulfate on histamine secretion from mast cells purified from peritoneal cavities of male Sprague/Dawley rats (300g, Charles River) over 25% Metrizamide (Accurate Scientific). Mast cells were preincubated with 10^−5 M saccharide for 60 min at 37° C. followed by two washes and resuspension in saccharide-free medium prior to stimulation with 10^−5 M of the mast cell secretagogue, compound 48/80 (C48/80) or the neuropeptide Substance P (SP). As the cells were washed free of saccharide, any inhibitory effect was not due to any interference with binding of C48/80 or SP to the cell surface. Consequently, this effect is distinct from reports showing that certain monosaccharide-containing lectins inhibit C48/80-induced mast cell secretion (Matsuda, K., et al., Jpn. J. Pharmacol. 64:1, 1994).

[2] = tested on: mast cells purified from 300g male Sprague/Dawley rats; experiment: Histamine secretion from purified rat mast cells, 15 min preincubation, washed, C48/80 stimulation; details: for Mast Cell Secretion, % of Total: 15 min preincubation, washed, then C48/80 0.1 μg/ml 10 min
Method: Here, we investigated the effect of the polysaccharide chondroitin sulfate and of the flavonoid quercetin on histamine secretion from mast cells purified from 300g male Sprague/Dawley rats. Mast cells were preincubated with the test compound for 15 min at 37° C. and washed twice prior to stimulation with 0.1 μg/ml of the mast cell secretagogue compound 48/80 (C48/80) for 10 min. […] A combination of these naturally occurring products available OTC could be useful for the prevention of stress-induced gastrointestinal syndromes, such as irritable bowel syndrome or inflammatory bowel disease.

[3] = tested on: human leukemic mast cells; experiment: Proliferation of cultured human leukemic mast cells; details: for Inhibition (%) of human leukemic mast cell proliferation: n = 5
From the text: Cell viability was about 90% or better.

N[C@H]1C(O)O[C@H](CO)[C@@H](O)[C@@H]1O.O=S(=O)(O)O (stereo partly drawn) [D-Glucosamine sulfate]
Mast Cell Secretion (% inhibition), C48/80 [1]: 33.7 ± 1.5% | Mast Cell Secretion (% inhibition), SP [1]: 27.5 ± 18.1%

CC(=O)N[C@H]1C(O)O[C@H](CO)[C@@H](O)[C@@H]1O (stereo partly drawn) [N-acetyl-glucosamine]
Mast Cell Secretion (% inhibition), C48/80 [1]: 37.4 ± 10.5% | Mast Cell Secretion (% inhibition), SP [1]: 30.8 ± 6.5%

O=c1c(O)c(-c2ccc(O)c(O)c2)oc2cc(O)cc(O)c12 [Quercetin, quercetin]
Mast Cell Secretion, % of Total ([2]; test compound 10^−6M): 30.5 ± 0.5%

chondroitin sulfate
maximal inhibition of mast cell activation ([2]; 10^−4 M, C48/80 stimulation): 83% | Mast Cell Secretion, % of Total ([2]; test compound 10^−4M): 5.3 ± 1.3% | Mast Cell Secretion, % of Total ([2]; test compound 10^−5M): 15.3 ± 2.7% | Mast Cell Secretion, % of Total ([2]; test compound 10^−6M): 31.0 ± 2.9% | Mast Cell Secretion (% inhibition), C48/80 [1]: 75.4 ± 3.6% | Mast Cell Secretion (% inhibition), SP [1]: 38.1 ± 12.2% | Inhibition (%) of human leukemic mast cell proliferation ([3]; Day 3, 10^−4M): 57.8 ± 13.3% | Inhibition (%) of human leukemic mast cell proliferation ([3]; Day 3, 10^−5M): 44.3 ± 12.7% | Inhibition (%) of human leukemic mast cell proliferation ([3]; Day 3, 10^−6M): 27.2 ± 12.1% | Inhibition (%) of human leukemic mast cell proliferation ([3]; Day 3, 10^−7M): 12.6 ± 9.6% | Inhibition (%) of human leukemic mast cell proliferation ([3]; Day 4, 10^−4M): 53.1 ± 8.9% | Inhibition (%) of human leukemic mast cell proliferation ([3]; Day 4, 10^−5M): 38.9 ± 9.1% | Inhibition (%) of human leukemic mast cell proliferation ([3]; Day 4, 10^−6M): 25.3 ± 9.6% | Inhibition (%) of human leukemic mast cell proliferation ([3]; Day 4, 10^−7M): 14.9 ± 6.9% | Inhibition (%) of human leukemic mast cell proliferation ([3]; Day 5, 10^−4M): 52.4 ± 13.9% | Inhibition (%) of human leukemic mast cell proliferation ([3]; Day 5, 10^−5M): 31.2 ± 15.8% | Inhibition (%) of human leukemic mast cell proliferation ([3]; Day 5, 10^−6M): 20.7 ± 15.2% | Inhibition (%) of human leukemic mast cell proliferation ([3]; Day 5, 10^−7M): 14.7 ± 6.8% | Cell viability ([3]; human leukemic mast cells cultured in the presence of chondroitin sulfate): ≥ 90%
